Results taken from US9018388B2, “Pesticidal compositions and processes related thereto” (Dow AgroSciences LLC, priority 2012, dated 2015).

How the values were obtained:
[1] = tested on: Beet Armyworm (BAW) (Spodoptera exigua); experiment: Bioassay on beet armyworm (BAW), 128-well diet tray assay; type: in vivo; details: Spodoptera exigua; Beet armyworm, 50 μg/cm^2; read-out: % Mortality BAW 50 μg/cm^2
Method: (§1) Bioassays on Beet Armyworm (“BAW”) and Corn Earworm (“CEW”)
(§2) Certain molecules disclosed in this document were tested against BAW and CEW using procedures described in the following examples. In the reporting of the results, the “BAW & CEW Rating Table” was used (See Table Section).
Bioassays on BAW (Spodoptera exigua)
Bioassays on BAW were conducted using a 128-well diet tray assay. One to five second instar BAW larvae were placed in each well (3 mL) of the diet tray that had been previously filled with 1 mL of artificial diet to which 50 μg/cm^2 of the test compound (dissolved in 50 μL of 90:10 acetone-water mixture) had been applied (to each of eight wells) and then allowed to dry. Trays were covered with a clear self-adhesive cover and held at 25° C., 14:10 light-dark for five to seven days. Percent mortality was recorded for the larvae in each well; activity in the eight wells was then averaged. The results are indicated in the table entitled “Table 5: Biological Results” (See Table Section).

[2] = tested on: Corn Earworm (CEW) (Helicoverpa zea); experiment: Bioassay on corn earworm (CEW), 128-well diet tray assay; type: in vivo; details: Helicoverpa zea; Corn earworm, 50 μg/cm^2; read-out: % Mortality CEW 50 μg/cm^2
Method: as §1, §2
Bioassays on CEW (Helicoverpa zea)
Bioassays on CEW were conducted using a 128-well diet tray assay. One to five second instar CEW larvae were placed in each well (3 mL) of the diet tray that had been previously filled with 1 mL of artificial diet to which 50 μg/cm^2 of the test compound (dissolved in 50 μL of 90:10 acetone-water mixture) had been applied (to each of eight wells) and then allowed to dry. Trays were covered with a clear self-adhesive cover and held at 25° C., 14:10 light-dark for five to seven days. Percent mortality was recorded for the larvae in each well; activity in the eight wells was then averaged. The results are indicated in the table entitled “Table 5: Biological Results” (See Table Section).

SMILES	pest or weed control at 50 µg/cm2, 50 µg/cm2 [1] [%]	pest or weed control at 50 µg/cm2, 50 µg/cm2 [2] [%]
CCC(C)c1ccccc1N1CCS/C1=N\N=C\c1ccc(-c2ncn(-c3ccc(OC(F)(F)F)cc3)n2)cc1 (stereo not shown) [Compound 135C]	50 to 100	50 to 100
Cc1cs/c(=N\N=C\c2ccc(-c3ncn(-c4ccc(OC(F)(F)F)cc4)n3)cc2)n1-c1ccccc1C(C)C [Compound 176C]	50 to 100	50 to 100
CC1S/C(=N\N=C\c2ccc(-c3ncn(-c4ccc(OC(F)(F)F)cc4)n3)cc2)N(c2c(Cl)cccc2Cl)C1=O (stereo not shown) [Compound 129C]	50 to 100	50 to 100
CC1CS/C(=N\N=C\c2ccc(-c3ncn(-c4ccc(OC(F)(F)F)cc4)n3)cc2)N1c1c(F)cccc1F (stereo not shown) [Compound 159C]	50 to 100	50 to 100
CC(C)c1ccc(F)cc1N1CS/C1=N\N=C\c1ccc(-c2ncn(-c3ccc(OC(F)(F)F)cc3)n2)cc1 [Compound 251C]	50 to 100	50 to 100
Cc1cccc(C)c1N1C(=O)CS/C1=N\N=C\c1ccc(-c2ncn(-c3ccc(OC(F)(F)F)cc3)n2)cc1 [Compound 71C]	50 to 100	50 to 100
Cc1cs/c(=N\N=C\c2ccc(-c3ncn(-c4ccc(OC(F)(F)F)cc4)n3)cc2)n1-c1c(F)cccc1F [Compound 171C]	50 to 100	50 to 100
Cc1cccc(C)c1/N=C(/N/N=C/c1ccc(-c2ncn(-c3ccc(OC(F)(F)F)cc3)n2)cc1)SCc1ccc(C(=O)O)cc1 [Compound 6C]	50 to 100	50 to 100
CCC(C)c1ccccc1N1/C(=N/N=C/c2ccc(-c3ncn(-c4ccc(OC(F)(F)F)cc4)n3)cc2)SCCC1C (stereo not shown) [Compound 220C]	50 to 100	50 to 100
CC1S/C(=N\N=C\c2ccc(-c3ncn(-c4ccc(OC(F)(F)F)cc4)n3)cc2)N(c2c(F)cccc2F)C1=O (stereo not shown) [Compound 131C]	50 to 100	50 to 100
FC(F)(F)Oc1ccc(-n2cnc(-c3ccc(/C=N/N=C4\SCCN4c4c(Cl)cccc4C(F)(F)F)cc3)n2)cc1 [Compound 149C]	50 to 100	50 to 100
CCc1cccc(C)c1N1CCS/C1=N\N=C\c1ccc(-c2ncn(-c3ccc(OC(F)(F)F)cc3)n2)cc1 [Compound 136C]	50 to 100	50 to 100
CC1CS/C(=N\N=C\c2ccc(-c3ncn(-c4ccc(OC(F)(F)F)cc4)n3)cc2)N1c1ccccc1C(C)(C)C (stereo not shown) [Compound 165C]	50 to 100	50 to 100
CC(C)c1ccc(F)cc1N1CS/C1=N\N=C\c1ccc(-c2ncn(-c3ccc(C(F)(F)C(F)(F)F)cc3)n2)cc1 [Compound 260C]	50 to 100	50 to 100
COc1cc(C)c(/N=C(/N/N=C/c2ccc(-c3ncn(-c4ccc(OC(F)(F)F)cc4)n3)cc2)SCC(=O)NCCCN)c(C)c1 [Compound 64C]	50 to 100	50 to 100
CC(C)c1c(F)cccc1N1CS/C1=N\N=C\c1ccc(-c2ncn(-c3ccc(OC(F)(F)F)cc3)n2)cc1 [Compound 253C]	50 to 100	50 to 100
Cc1cccc(C)c1N1CCCCS/C1=N\N=C\c1ccc(-c2ncn(-c3ccc(OC(F)(F)F)cc3)n2)cc1 [Compound 211C]	50 to 100	50 to 100
Cc1cccc(Cl)c1N1C(=O)CCS/C1=N\N=C\c1ccc(-c2ncn(-c3ccc(OC(F)(F)F)cc3)n2)cc1 [Compound 227C]	50 to 100	50 to 100
Cc1cccc(C)c1/N=C1\SCC(=O)N1/N=C/c1ccc(-c2ncn(-c3ccc(OC(F)(F)F)cc3)n2)cc1 [Compound 81C]	50 to 100	50 to 100
C/C(=N\N=C1/SCC(=O)N1c1ccccc1C(C)C)c1ccc(-c2ncn(-c3ccc(OC(F)(F)F)cc3)n2)cc1 [Compound 122C]	50 to 100	50 to 100
CCS/C(=N\c1c(Cl)cccc1Cl)N/N=C/c1ccc(-c2ncn(-c3ccc(OC(F)(F)F)cc3)n2)cc1 [Compound 2C]	50 to 100	50 to 100

SMILES	pest or weed control at 50 µg/cm2, 50 µg/cm2 [1] [%]	pest or weed control at 50 µg/cm2, 50 µg/cm2 [2] [%]
Cc1cs/c(=N\N=C\c2ccc(-c3ncn(-c4ccc(OC(F)(F)F)cc4)n3)cc2)n1-c1ccccc1OC(F)(F)F [Compound 170C]	50 to 100	50 to 100
Cc1cnccc1N1C(=O)CS/C1=N\N=C\c1ccc(-c2ncn(-c3ccc(OC(F)(F)F)cc3)n2)cc1 [Compound 118C]	50 to 100	50 to 100
CC(C)Cc1ccccc1N1CCS/C1=N\N=C\c1ccc(-c2ncn(-c3ccc(OC(F)(F)F)cc3)n2)cc1 [Compound 150C]	50 to 100	50 to 100
COc1cc(C)c(/N=C(/N/N=C/c2ccc(-c3ncn(-c4ccc(OC(F)(F)F)cc4)n3)cc2)SCC(=O)O)c(C)c1 [Compound 48C]	50 to 100	50 to 100
CCC1CS/C(=N\N=C\c2ccc(-c3ncn(-c4ccc(OC(F)(F)F)cc4)n3)cc2)N1c1ccccc1C (stereo not shown) [Compound 166C]	50 to 100	50 to 100
Cc1cc(C)c(N2/C(=N/N=C/c3ccc(-c4ncn(-c5ccc(OC(F)(F)F)cc5)n4)cc3)SCC2C)c(C)c1 (stereo not shown) [Compound 161C]	50 to 100	50 to 100
CCOc1ccccc1N1CCCS/C1=N\N=C\c1ccc(-c2ncn(-c3ccc(OC(F)(F)F)cc3)n2)cc1 [Compound 208C]	50 to 100	50 to 100
CCCS/C(=N\c1c(Cl)cccc1Cl)N/N=C/c1ccc(-c2ncn(-c3ccc(OC(F)(F)F)cc3)n2)cc1 [Compound 3C]	50 to 100	50 to 100
COc1cc(C)c(N2CS/C2=N\N=C\c2ccc(-c3ncn(-c4ccc(OC(F)(F)F)cc4)n3)cc2)c(C)c1 [Compound 242C]	50 to 100	50 to 100
CC(C)c1ccccc1N1CS/C1=N\N=C\c1ccc(-c2ncn(-c3ccc(OC(F)(F)F)cc3)n2)cc1 [Compound 240C]	50 to 100	50 to 100
CC(C)c1ccc(F)cc1N1CS/C1=N\N=C\c1ccc(-c2ncn(-c3ccc(C(F)(F)F)cc3)n2)cc1 [Compound 255C]	50 to 100	50 to 100
C/C(=N\N=C1/SCN1c1ccccc1C(C)C)c1ccc(-c2ncn(-c3ccc(OC(F)(F)F)cc3)n2)cc1 [Compound 248C]	50 to 100	50 to 100
Cc1cccc(Cl)c1N1C(=O)CS/C1=N\N=C\c1ccc(-c2ncn(-c3ccc(OC(F)(F)F)cc3)n2)cc1 [Compound 93C]	50 to 100	50 to 100
Cc1cccc(Cl)c1N1CCCS/C1=N\N=C\c1ccc(-c2ncn(-c3ccc(OC(F)(F)F)cc3)n2)cc1 [Compound 196C]	50 to 100	50 to 100
O=C1CS/C(=N\N=C\c2ccc(-c3ncn(-c4ccc(OC(F)(F)F)cc4)n3)cc2)N1c1c(F)cccc1F [Compound 89C]	50 to 100	50 to 100
FC(F)(F)Oc1ccc(-n2cnc(-c3ccc(/C=N/N=C4\SCCCN4c4ccccc4OC(F)(F)F)cc3)n2)cc1 [Compound 199C]	50 to 100	50 to 100
Cc1cc(C)c(N2/C(=N/N=C/c3ccc(-c4ncn(-c5ccc(OC(F)(F)F)cc5)n4)cc3)SCCC2C)c(C)c1 (stereo not shown) [Compound 218C]	50 to 100	50 to 100
COc1ccc(N2C(=O)CS/C2=N\N=C\c2ccc(-c3ncn(-c4ccc(OC(F)(F)F)cc4)n3)cc2)c(C)c1 [Compound 114C]	50 to 100	50 to 100
CCC(C)c1ccccc1N1/C(=N/N=C/c2ccc(-c3ncn(-c4ccc(OC(F)(F)F)cc4)n3)cc2)SCC1C (stereo not shown) [Compound 163C]	50 to 100	50 to 100
Cc1cccc(C)c1/N=C(/N/N=C/c1ccc(-c2ncn(-c3ccc(OC(F)(F)F)cc3)n2)cc1)SCOC(=O)CNC(=O)OCc1ccccc1 [Compound 23C]	50 to 100	50 to 100
